Measured values from patent US11161838B2, “Heterocyclic derivatives as PI3K inhibitors” (Incyte Corporation, priority 2018, dated 2021).
Where a name gives a salt, the structure may show the parent alone.

Tests used:
PI3Kγ (p110γ) = PI3Kγ (p110γ) (Homo sapiens (Human), UniProt P48736); experiment: PI3K-γ Scintillation Proximity Assay; type: biochemical; conditions: 20 μM PIP2, 2 μM ATP, 13 nM PI3Kγ, 120 min, room temperature
Description: Example B. PI3K-γ Scintillation Proximity Assay
(§1) [γ-^33P]ATP (10 mCi/mL) and Wheat Germ Agglutinin (WGA) YSi SPA Scintillation Beads was purchased from Perkin Elmer (Waltham, Mass.). Lipid kinase substrate, D-myo-Phosphatidylinositol 4,5-bisphosphate (PtdIns(4,5)P2)D (+)-sn-1,2-di-O-octanoylglyceryl, 3-O-phospho linked (PIP2), CAS 204858-53-7, was purchased from Echelon Biosciences (Salt Lake City, Utah). PI3Kγ (p110γ) Recombinant Human Protein was purchased from Life technology (Grand Island, N.Y.). ATP, MgCl2, DTT, EDTA, MOPS and CHAPS were purchased from Sigma Aldrich (St. Louis, Mo.).
(§2) The kinase reaction was conducted in polystyrene 384-well Greiner Bio-one white plate from Thermo Fisher Scientific in a final volume of 25 μL. Inhibitors were first diluted serially in DMSO and added to the plate wells before the addition of other reaction components. The final concentration of DMSO in the assay was 2%. The PI3Kγ assay was carried out at room temperature in 20 mM MOPS, pH 6.7, 10 mM MgCl2, 5 mM DTT and CHAPS 0.03%. Reactions were initiated by the addition of ATP, the final reaction mixture consisted of 20 μM PIP2, 2 μM ATP, 0.5 μCi [γ-^33P] ATP, 13 nM PI3Kγ. Reactions were incubated for 120 min and terminated by the addition of 40 μL SPA beads suspended in quench buffer: 163 mM potassium phosphate pH 7.8, 20% glycerol, 25 mM EDTA. The final concentration of SPA beads is 1.0 mg/mL. After the plate sealing, plates were shaken overnight at room temperature and centrifuged at 1500 rpm for 10 min, the radioactivity of the product was determined by scintillation counting on Topcount (Perkin-Elmer). IC50 determination was performed by fitting the curve of percent of the solvent control activity versus the log of the inhibitor concentration using the GraphPad Prism 6.0 software.

[1] = system: Phosphorylated Ribosomal Protein S6 (RPS6) in THP-1 cells; experiment: THP-1 RPS6 ELISA Assay; type: cell-based; conditions: Homo sapiens; serum starved THP-1 cells, 2 hours with compound, then 10 nM MCP-1 for 15 minutes; Phospho-RPS6 ELISA; read-out: PI3Kγ_THP1_RPS6_ELISA IC50
Protocol: Example A. THP-1 RPS6 ELISA Assay
To measure the Phosphorylated Ribosomal Protein S6 (RPS6) in cell lysates, THP-1 cells (Human Acute Monocytic Leukemia) are purchased from ATCC (Manassas, Va.) and maintained in RPMI with 10% FBS (Gibco/Life Technologies, Carlsbad, Calif.). For the assay, THP-1 cells are serum starved overnight in RPMI, then plated in RPMI (2×10^5 cells/well in 90 μL) into 96-well flat-bottom tissue culture treated plates (Corning, Corning, N.Y.), in the presence or absence of a concentration range of test compounds. Covered plates are incubated for 2 hours at 37° C., 5% CO2 then treated with or without 10 nM MCP-1 (MYBioSource, San Diego, Calif.) for 15 minutes at 37° C., 5% CO2. Plates are centrifuged at 1600 RPM and supernatants are removed. Cells are lysed in Lysis Buffer (Cell Signaling, Danvers, Mass.) with Protease Inhibitor (Calbiochem/EMD, Germany), PMSF (Sigma, St Louis Mo.), HALTS (Thermo Fisher, Rockford, Ill.) for 30 min on wet ice. Cell lysates are frozen at −80 OC before testing. The lysates are tested in the Human/Mouse/Rat Phospho-RPS6 ELISA (R&D Systems, Inc. Minn, Minn.). The plate is measured using a microplate reader (SpectraMax M5—Molecular Devices, LLC Sunnyvale, Calif.) set to 450 nm with a wavelength correction of 540. IC50 determination is performed by fitting the curve of inhibitor percent inhibition versus the log of the inhibitor concentration using the GraphPad Prism 5.0 software.

PI3Kδ (p110δ/p85α) = PI3Kδ (p110δ/p85α) (Homo sapiens (Human), UniProt O00329); experiment: PI3Kδ Scintillation Proximity Assay; type: biochemical; conditions: 20 μM PIP2, 2 μM ATP, 3.4 nM PI3Kδ, 120 min, room temperature
Sequence of PI3Kδ (p110δ/p85α) (O00329 whole entry): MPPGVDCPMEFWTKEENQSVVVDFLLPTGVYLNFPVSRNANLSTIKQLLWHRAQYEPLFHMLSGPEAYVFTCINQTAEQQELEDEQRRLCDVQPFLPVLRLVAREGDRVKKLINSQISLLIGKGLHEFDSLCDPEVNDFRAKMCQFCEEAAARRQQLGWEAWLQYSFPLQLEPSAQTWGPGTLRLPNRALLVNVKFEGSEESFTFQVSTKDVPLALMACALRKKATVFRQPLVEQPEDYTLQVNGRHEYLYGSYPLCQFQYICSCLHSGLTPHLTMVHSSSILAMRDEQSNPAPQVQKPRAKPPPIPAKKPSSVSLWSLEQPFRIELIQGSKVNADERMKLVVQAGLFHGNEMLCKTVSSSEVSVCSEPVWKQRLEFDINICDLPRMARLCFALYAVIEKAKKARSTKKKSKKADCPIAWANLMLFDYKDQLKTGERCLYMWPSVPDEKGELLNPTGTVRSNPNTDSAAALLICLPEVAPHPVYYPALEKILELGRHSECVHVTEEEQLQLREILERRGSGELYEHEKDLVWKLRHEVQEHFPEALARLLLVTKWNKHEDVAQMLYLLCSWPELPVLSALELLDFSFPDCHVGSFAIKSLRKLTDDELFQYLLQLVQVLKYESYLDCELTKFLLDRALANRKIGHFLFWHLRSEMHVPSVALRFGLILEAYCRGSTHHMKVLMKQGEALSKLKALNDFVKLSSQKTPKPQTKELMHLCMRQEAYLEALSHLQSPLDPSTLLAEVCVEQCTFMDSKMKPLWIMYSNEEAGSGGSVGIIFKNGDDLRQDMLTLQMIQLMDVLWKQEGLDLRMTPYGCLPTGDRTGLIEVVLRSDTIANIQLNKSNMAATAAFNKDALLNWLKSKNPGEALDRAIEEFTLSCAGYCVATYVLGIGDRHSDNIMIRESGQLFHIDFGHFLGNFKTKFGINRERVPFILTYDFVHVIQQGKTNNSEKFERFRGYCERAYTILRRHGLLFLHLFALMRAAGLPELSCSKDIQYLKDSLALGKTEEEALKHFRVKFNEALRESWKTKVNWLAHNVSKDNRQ
Sequence of PI3Kδ (p110δ/p85α) (P27986 whole entry partner): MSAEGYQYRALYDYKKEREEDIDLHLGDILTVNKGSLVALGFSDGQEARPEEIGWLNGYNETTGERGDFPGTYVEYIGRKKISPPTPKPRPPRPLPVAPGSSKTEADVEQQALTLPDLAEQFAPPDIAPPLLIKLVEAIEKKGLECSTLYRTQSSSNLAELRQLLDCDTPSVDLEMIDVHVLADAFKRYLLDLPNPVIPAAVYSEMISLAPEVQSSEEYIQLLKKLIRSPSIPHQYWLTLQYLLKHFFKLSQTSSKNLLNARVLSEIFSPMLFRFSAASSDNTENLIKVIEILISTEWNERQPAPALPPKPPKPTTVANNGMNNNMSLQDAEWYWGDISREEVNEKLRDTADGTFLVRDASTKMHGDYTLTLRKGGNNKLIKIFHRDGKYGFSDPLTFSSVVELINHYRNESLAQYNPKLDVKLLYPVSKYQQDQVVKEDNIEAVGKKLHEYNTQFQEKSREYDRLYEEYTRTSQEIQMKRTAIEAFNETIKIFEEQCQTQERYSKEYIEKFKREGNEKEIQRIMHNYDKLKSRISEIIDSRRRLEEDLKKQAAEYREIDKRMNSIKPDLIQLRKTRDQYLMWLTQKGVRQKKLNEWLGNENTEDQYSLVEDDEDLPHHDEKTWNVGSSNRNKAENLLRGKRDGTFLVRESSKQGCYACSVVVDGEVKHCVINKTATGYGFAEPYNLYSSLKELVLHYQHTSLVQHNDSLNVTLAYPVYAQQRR
Description: Example C. PI3Kδ Scintillation Proximity Assay
as §1, with “Materials: [γ-^33P]ATP” for “[γ-^33P]ATP”, “PI3Kδ (p110δ/p85α)” for “PI3Kγ (p110γ)”, “Eurofins (St Charles, Mo.).” for “Life technology (Grand Island, N.Y.).”
as §2, with “PI3K6” for “PI3Kγ”, “3.4” for “13”, “PI3K6.” for “PI3Kγ.”, “(PerkinElmer).” for “(Perkin-Elmer).”

Sequence of PI3Kγ (p110γ) (P48736 whole entry): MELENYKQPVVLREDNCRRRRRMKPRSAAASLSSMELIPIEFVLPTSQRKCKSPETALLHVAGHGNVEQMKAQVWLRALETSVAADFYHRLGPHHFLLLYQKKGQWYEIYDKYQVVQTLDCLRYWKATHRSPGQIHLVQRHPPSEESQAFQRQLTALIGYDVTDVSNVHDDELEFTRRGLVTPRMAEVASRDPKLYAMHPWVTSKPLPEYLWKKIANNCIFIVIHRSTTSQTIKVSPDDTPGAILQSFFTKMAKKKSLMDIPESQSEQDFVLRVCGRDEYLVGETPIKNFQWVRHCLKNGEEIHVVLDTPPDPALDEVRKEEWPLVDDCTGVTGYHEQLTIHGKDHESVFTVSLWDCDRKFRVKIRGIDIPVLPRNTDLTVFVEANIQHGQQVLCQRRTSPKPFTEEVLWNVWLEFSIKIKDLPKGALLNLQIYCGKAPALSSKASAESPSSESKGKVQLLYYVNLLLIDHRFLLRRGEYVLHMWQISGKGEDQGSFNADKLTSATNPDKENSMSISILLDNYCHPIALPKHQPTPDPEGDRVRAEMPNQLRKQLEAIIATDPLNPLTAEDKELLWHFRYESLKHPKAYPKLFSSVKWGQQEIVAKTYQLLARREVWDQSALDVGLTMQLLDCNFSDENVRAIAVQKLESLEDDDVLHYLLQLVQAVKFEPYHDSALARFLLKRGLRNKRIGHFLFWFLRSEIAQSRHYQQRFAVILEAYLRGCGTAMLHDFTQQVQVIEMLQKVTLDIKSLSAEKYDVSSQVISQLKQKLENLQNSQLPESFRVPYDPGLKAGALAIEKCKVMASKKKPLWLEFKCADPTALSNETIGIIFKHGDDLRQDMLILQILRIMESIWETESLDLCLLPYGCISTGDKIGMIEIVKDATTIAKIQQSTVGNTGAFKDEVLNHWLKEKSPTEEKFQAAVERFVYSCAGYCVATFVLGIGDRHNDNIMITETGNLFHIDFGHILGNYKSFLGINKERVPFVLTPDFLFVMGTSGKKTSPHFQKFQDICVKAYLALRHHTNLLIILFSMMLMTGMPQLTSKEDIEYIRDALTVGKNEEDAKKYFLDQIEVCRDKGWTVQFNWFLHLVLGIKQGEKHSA

| SMILES | IC50 (PI3Kγ (p110γ)) [nM] | IC50 [1] [nM] | IC50 (PI3Kδ (p110δ/p85α)) [nM] |
| --- | --- | --- | --- |
| CC(C1CC1)n1nc2ccc(-c3cnc(N)cn3)cc2n1 (centres unmarked) [Example 6, 5-(2-(1-Cyclopropylethyl)-2H-benzo[d][1,2,3]triazol-5-yl)pyrazin-2-amine, trifluoroacetate] | 500 to 2000 |  | ≥ 2000 |
| Cc1cc(-c2cnc(N)cn2)cc2cn(C(C)C3CC3)nc12 (centres unmarked) [Example 5, 5-(2-(1-Cyclopropylethyl)-7-methyl-2H-indazol-5-yl)pyrazin-2-amine, trifluoroacetate] | 100 to 500 |  | ≥ 2000 |
| C[C@@H](C1CC1)N1Cc2cc(-c3cnc(N)c(-c4ccnn4C)n3)cc(S(C)(=O)=O)c2C1=O [Example 7, (S)-5-(5-Amino-6-(1-methyl-1H-pyrazol-5-yl)pyrazin-2-yl)-2-(1-cyclopropylethyl)-7-(methylsulfonyl)isoindolin-1-one, trifluoroacetate salt] | ≤ 100 | ≥ 1000 | 500 to 2000 |
| C[C@@H](C1CC1)N1Cc2cc(-c3cnc(N)c(C(=O)NC4CCOCC4)n3)cc(S(C)(=O)=O)c2C1=O [Example 3, (S)-3-Amino-6-(2-(1-cyclopropylethyl)-7-(methylsulfonyl)-1-oxoisoindolin-5-yl)-N-(tetrahydro-2H-pyran-4-yl)pyrazine-2-carboxamide trifluoroacetate salt] | ≤ 100 | 100 to 500 | 100 to 500 |
| Cc1ncc(-c2nc(-c3cc4c(c(S(C)(=O)=O)c3)C(=O)N([C@@H](C)C3CC3)C4)cnc2N)s1 [Example 9, (S)-5-(5-Amino-6-(2-methylthiazol-5-yl)pyrazin-2-yl)-2-(1-cyclopropylethyl)-7-(methylsulfonyl)isoindolin-1-one, trifluoroacetate salt] | ≤ 100 | 500 to 1000 | 100 to 500 |
| CC(C)NC(=O)c1nc(-c2cc3c(c(S(C)(=O)=O)c2)C(=O)N([C@@H](C)C2CC2)C3)cnc1N [Example 4, (S)-3-Amino-6-(2-(1-cyclopropylethyl)-7-(methylsulfonyl)-1-oxoisoindolin-5-yl)-N-isopropylpyrazine-2-carboxamide trifluoroacetate salt] | ≤ 100 | ≥ 1000 | 500 to 2000 |
| C[C@@H](C1CC1)N1Cc2cc(-c3cnc(N)c(C(=O)NC4CCOCC4)n3)ccc2C1=O [Example 1, (S)-3-Amino-6-(2-(1-cyclopropylethyl)-1-oxoisoindolin-5-yl)-N-(tetrahydro-2H-pyran-4-yl)pyrazine-2-carboxamide trifluoroacetate salt] | ≤ 100 | ≥ 1000 | 500 to 2000 |
| CC(C)NC(=O)c1nc(-c2ccc3c(c2)CN([C@@H](C)C2CC2)C3=O)cnc1N [Example 2, (S)-3-Amino-6-(2-(1-cyclopropylethyl)-1-oxoisoindolin-5-yl)-N-isopropylpyrazine-2-carboxamide trifluoroacetate salt] | ≤ 100 | ≥ 1000 | 500 to 2000 |
| C[C@@H](C1CC1)N1Cc2cc(-c3cnc(N)c(-c4cn[nH]c4)n3)cc(S(C)(=O)=O)c2C1=O [Example 11, (S)-5-(5-Amino-6-(1H-pyrazol-4-yl)pyrazin-2-yl)-2-(1-cyclopropylethyl)-7-(methylsulfonyl)isoindolin-1-one, trifluoroacetate salt] | ≤ 100 |  | 500 to 2000 |

Now from value to molecule:

| IC50 (PI3Kγ (p110γ)) [nM] | IC50 [1] [nM] | IC50 (PI3Kδ (p110δ/p85α)) [nM] | SMILES |
| --- | --- | --- | --- |
| ≤ 100 | ≥ 1000 | 500 to 2000 | C[C@@H](C1CC1)N1Cc2cc(-c3cnc(N)c(-n4cncn4)n3)cc(S(C)(=O)=O)c2C1=O [Example 12, (S)-5-(5-Amino-6-(1H-1,2,4-triazol-1-yl)pyrazin-2-yl)-2-(1-cyclopropylethyl)-7-(methylsulfonyl)isoindolin-1-one, trifluoroacetate salt] |
| ≤ 100 |  | ≥ 2000 | C[C@@H](C1CC1)N1Cc2cc(-c3cnc(N)c(C4CN(C(=O)C5(C(F)(F)F)CC5)C4)n3)ccc2C1=O [Example 13, (S)-5-(5-Amino-6-(1-(1-(trifluoromethyl)cyclopropane-1-carbonyl)azetidin-3-yl)pyrazin-2-yl)-2-(1-cyclopropylethyl)isoindolin-1-one, 0.7× trifluoroacetate salt] |
| ≤ 100 | ≥ 1000 | 500 to 2000 | Cc1n[nH]cc1-c1nc(-c2cc3c(c(S(C)(=O)=O)c2)C(=O)N([C@@H](C)C2CC2)C3)cnc1N [Example 10, (S)-5-(5-Amino-6-(3-methyl-1H-pyrazol-4-yl)pyrazin-2-yl)-2-(1-cyclopropylethyl)-7-(methylsulfonyl)isoindolin-1-one, trifluoroacetate salt] |
| ≤ 100 | 500 to 1000 | 500 to 2000 | C[C@@H](C1CC1)N1Cc2cc(-c3cnc(N)c(-c4cnn(C)c4)n3)cc(S(C)(=O)=O)c2C1=O [Example 8, (S)-5-(5-Amino-6-(1-methyl-1H-pyrazol-4-yl)pyrazin-2-yl)-2-(1-cyclopropylethyl)-7-(methylsulfonyl)isoindolin-1-one, trifluoroacetate salt] |
